# Assay results taken from US7145032B2, “Therapeutic malonic acid/acetic acid C60 tri-adducts of buckminsterfullerene and methods related thereto” (priority 2002, dated 2006).
# Assays:
# monkeys = conditions: one monkey; mean survival 25 months; cited from earlier work
# Drosophila = conditions: controlled study; cited from earlier work
# rats = conditions: treatment from age 96 weeks to end of life; control 147+/−1; cited from earlier work
# C57B6 mice [1] = conditions: chronic treatment starting at 18 months of age; cited from earlier work
# Fisher 344 rats [2] = conditions: same dose of deprenyl; cited from earlier work
# Fisher 344 rats [3] = conditions: cited from earlier work
# C57B6 mice [4] = format: in vivo; conditions: oral C3 from 12 months of age to end of life, versus control
# Protocol: The date of spontaneous death for each mouse was recorded, and used to calculate the lifespan. Lifespan of each mouse was calculated in months because mice received from the NIA rodent colony have their birth month, but not their specific birth date, recorded. Average survival was calculated for each treatment and the mean lifespans were compared using a t-test with significance set to p<0.05 (actual p=0.033).
# Twelve month old C57B6NIH male and female mice (equal numbers) were purchased from the National Institute on Aging (NIA) Aging Rodent Colony. Mice shipped from this colony were not selected in any way for health, tumors or other disabilities, and all mice obtained from the colony were subsequently enrolled in the study. […]
# Solution A or solution B was placed in the water bottles, and solutions were topped-off twice weekly, and filtered to remove any particulates biweekly by an individual blind to the identity of the solutions. […] Mice were allowed to die spontaneously, and their date of death were recorded by the Animal Housing Facility staff as part of the normal operating procedure of the facility. […] When animals died, the cage number, identity of the animal, and the date of death were recorded on the death notice, which was then sent to the laboratory, where the information was entered into the database.
# [5] = Plasma pharmacokinetics and tissue distribution in mice
# Text: The above dosing information is based on a pharmokinetics study carried out in mice, toxicity testing in mice and toxicity testing in rats.
# Solubility = format: physicochemical
# Text: The progress of the reaction was monitored by HPLC (Protocol 2).
# [6] = Reactivity of C3 with superoxide; format: biochemical; conditions: calculated
# Text: Because many important biological reactions generate reactive oxygen species intentionally, or as unwanted toxic by-products, antioxidant molecules capable of supplementing the antioxidant defenses of cells as potential therapeutic agents are therapeutically useful. […] These novel carboxyfullerene compositions have antioxidant properties.
# [7] = Hydration of freeze dried sodium salt; format: physicochemical; conditions: dry weight divided by expected weight for complete neutralization; freeze dried 4 days
# [8] = Thermal stability in 1:1 acetonitrile:water at 60°; format: physicochemical; conditions: for Hexa, percent of injected compound (HPLC): 60° C.
# Text: The composition was monitored by HPLC, using protocols 2 and 4 (see Table 1).
compound,measurement,setting,value
O=CC[C@@H](O)[C@H](O)[C@H](O)CO [2-deoxyglucose],survival of a treated monkey,monkeys,38 months
C#CCN(C)[C@H](C)Cc1ccccc1 [deprenyl],effect on lifespan,Drosophila,did not show an increase in lifespan
same,lifespan of treated rats,rats,198+/−2 weeks
same,survival benefit,C57B6 mice [1],failed to show any survival benefit
same,effect on mortality and lifespan,Fisher 344 rats [2],greater mortality and shortened lifespan
same,increase in longevity,Fisher 344 rats [3]; not statistically significant,7%
same,mean survival of treated animals,"Fisher 344 rats [3]; treatment from 18 months of age, controls 28 months",30 months
"e,e,e tris malonic acid C60 [Compound C3]",increase in the lifespan,C57B6 mice [4],approximately 20%
same,route of clearance,[5],excretion through both the liver and kidney
same,tissue levels / distribution,[5]; various times after ip administration,accumulation through the liver and kidney
same,Solubility Sodium salt,"Solubility; calculated for the acid, unit not printed for this column (neighbour: mg/ml)",>450^6
same,Solubility Water,Solubility; uv of liquid portion of a saturated solution,>454^6 mg/ml
same,rate constant of C3 reaction with superoxide,[6],3e+06 M⁻¹ s⁻¹
same,Hydration of Na salt,[7],1.31
same,Thermal Stability # of products,[8]; 60°,10
same,"Hexa, percent of injected compound (HPLC)",[8]; incubation 5.5 h,2.6%
same,"Hexa, percent of injected compound (HPLC)",[8]; incubation […],9.2%
same,"Hexa, percent of injected compound (HPLC)","[8]; incubation […], 97.4% at 0 h",40.5%
